Target: T1, ParBBb (Bdellovibrio bacteriovorus, UniProt Q6MGM0)
T1 construct: gene parB; C-terminal 6xHis tag kept (pET21), expressed in E. coli BL21(DE3); HisTrap and Superdex 75 purified; dimer
T1 sequence (Q6MGM0 1-337): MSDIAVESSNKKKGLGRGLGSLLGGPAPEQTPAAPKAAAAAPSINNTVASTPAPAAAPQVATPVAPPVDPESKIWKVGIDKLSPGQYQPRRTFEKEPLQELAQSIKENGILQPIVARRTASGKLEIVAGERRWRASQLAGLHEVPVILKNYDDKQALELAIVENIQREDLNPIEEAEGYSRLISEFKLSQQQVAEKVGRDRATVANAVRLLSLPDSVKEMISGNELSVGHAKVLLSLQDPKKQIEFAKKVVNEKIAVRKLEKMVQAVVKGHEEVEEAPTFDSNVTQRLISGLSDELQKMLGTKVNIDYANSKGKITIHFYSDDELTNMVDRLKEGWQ
Assay: EnzChek phosphate release assay (A360)
Format: biochemical
Details: 1 mM NTP, 1 uM ParBBb, 22 bp parSBb DNA duplex, Mg2+, Tris pH 8.0, 25 °C

## Nc1ccn([C@@H]2O[C@H](COP(=O)(O)OP(=O)(O)OP(=O)(O)O)[C@@H](O)[C@H]2O)c(=O)n1 [CTP]
  EnzChek phosphate release assay (A360): ParBBb hydrolyses CTP but no other NTPs in the presence of parSBb

From publication PMC10547168, “Cell cycle-dependent organization of a bacterial centromere through multi-layered regulation of the ParABS system” (PLOS Genetics, 2023)
